± gives the expanded uncertainty stated by the source.
Assays:
[1] = 101.33 kPa, Liquid; for viscosity: Concentric cylinders viscometry; for mass density: Vibrating tube method
[2] = refractive index (Na D-line) (dimensionless); conditions: 101.33 kPa, Liquid, Standard Abbe refractometry

Row | Compound | viscosity ([1]; 298.15 K) | mass density ([1]; 298.15 K) | refractive index ([2]; 298.15 K) | viscosity ([1]; 323.15 K) | mass density ([1]; 323.15 K) | refractive index ([2]; 323.15 K) | other results
1 | CC(O)CN (centres undefined) [1-amino-2-propanol] | 23.26 ± 0.41 mPa·s | 956.644 ± 1 kg/m3 | 1.4459 ± 0.00082 | – | – | – | –
2 | CC(O)CNCC(C)O (centres undefined) [N-(2-hydroxypropyl)-2-hydroxy-1-propanamine] | – | – | – | 123.21 ± 4.4 mPa·s | 984.835 ± 1.1 kg/m3 | 1.45139 ± 0.00068 | viscosity ([1]; 313.15 K): 308.54 ± 11 mPa·s; mass density ([1]; 313.15 K): 992.46 ± 1.1 kg/m3; refractive index ([2]; 313.15 K): 1.45517 ± 0.00068
3 | OCCNCCO [diethanolamine] | 566.57 ± 46 mPa·s | 1093.22 ± 0.17 kg/m3 | 1.4764 ± 0.00073 | – | – | – | –
4 | CC(O)CN(CC(C)O)CC(C)O (centres undefined) [triisopropanolamine] | – | – | – | 132.3 ± 5.5 mPa·s | 990.616 ± 6.8 kg/m3 | 1.45233 ± 0.0012 | –
5 | O [water] | 0.9123 ± 0.0097 mPa·s | – | 1.33249 ± 0.00042 | – | – | – | viscosity ([1]; 293.15 K): 1.019 ± 0.01 mPa·s; refractive index ([2]; 293.15 K): 1.33304 ± 0.00042
